Data on four molecules can be found in ChEMBL document CHEMBL4190387 (Bioorg Med Chem Lett, 2018).

What is called chromatographic logD is lipophilicity estimated from chromatographic retention. A word on the hepatocyte CLint: it is the rate of metabolic loss divided by the concentration.

One series can be described thus: physchem. The conditions noted are these: buffer, pH 6.5.
The next series can be described thus: in vitro. Particulars: human, cryopreserved hepatocytes.

With `O=C(O)c1ccc(-c2ccc(OCCCCO)c(-c3ccc(N4CCCC4)c(C(F)(F)F)c3)c2)cc1`, the chromatographic logD in the series “physchem” was 2.8. The same molecule returned a hepatocyte CLint at 1.5 h, 1 µM in the series “in vitro” of 22 µL/min/1e6 cells.
`CCN(CC)c1ccc(-c2cc(-c3ccc(C(=O)O)cc3)ccc2OCCCCO)cc1C(C)(C)C` gave a chromatographic logD in the series “physchem” of 4.3. In addition, the hepatocyte CLint at 1.5 h, 1 µM in the series “in vitro” was 33 µL/min/1e6 cells.
For `CCN(CC)c1ccc(-c2cc(-c3ccc(C(=O)O)cc3)ccc2OCCCO)cc1` the same measures were 1.9 and 11 µL/min/1e6 cells.
The molecule `CC(C)(C)c1cc(-c2cc(-c3ccc(C(=O)O)cc3)ccc2OCCO)ccc1N1CCCC1` [TRIFAROTENE] displayed a chromatographic logD in “physchem” of 3.5. Also, the hepatocyte CLint at 1.5 h, 1 µM in the series “in vitro” stood at 72 µL/min/1e6 cells.
